Assay results as given in US11072634B2, “Inhibitors of transglutaminases” (Zedira GmbH, priority 2016, dated 2021).
Where two headings read alike, the source gives them in different places. *1 amine or outer side, *2 acyl side, *3 side chain or, on linkers, in order; H or OH if unused. Where a SMILES comes first, the peptide text is derived from it. [ ]: non-standard residue; d: D form. The star is where a group is joined. X4 = O=C(CC[C@H](N[*:1])C(=O)[*:2])C(=O)NC1CC1; Isonicotinoyl(3-COOH) = O=C(O)c1cnccc1C(=O)*; X6 = CCNC(=O)C(=O)CC[C@H](N[*:1])C(=O)[*:2]; X5 = NC(=O)C(=O)CC[C@H](N[*:1])C(=O)[*:2]; Pro(4-oxo) = O=C1CN[C@H](C(=O)O)C1; Chg = N[C@H](C(=O)O)C1CCCCC1; Tle = CC(C)(C)[C@H](N)C(=O)O; Nle = CCCC[C@H](N)C(=O)O

Assays:
Assay type in all cases: biochemical
[1] = biological target: T1, TG2 (Homo sapiens, UniProt P21980); assay: FXIII assay format using TG2 instead of FXIII (selectivity of FXIIIa blockers)
T1 sequence (P21980 1-687): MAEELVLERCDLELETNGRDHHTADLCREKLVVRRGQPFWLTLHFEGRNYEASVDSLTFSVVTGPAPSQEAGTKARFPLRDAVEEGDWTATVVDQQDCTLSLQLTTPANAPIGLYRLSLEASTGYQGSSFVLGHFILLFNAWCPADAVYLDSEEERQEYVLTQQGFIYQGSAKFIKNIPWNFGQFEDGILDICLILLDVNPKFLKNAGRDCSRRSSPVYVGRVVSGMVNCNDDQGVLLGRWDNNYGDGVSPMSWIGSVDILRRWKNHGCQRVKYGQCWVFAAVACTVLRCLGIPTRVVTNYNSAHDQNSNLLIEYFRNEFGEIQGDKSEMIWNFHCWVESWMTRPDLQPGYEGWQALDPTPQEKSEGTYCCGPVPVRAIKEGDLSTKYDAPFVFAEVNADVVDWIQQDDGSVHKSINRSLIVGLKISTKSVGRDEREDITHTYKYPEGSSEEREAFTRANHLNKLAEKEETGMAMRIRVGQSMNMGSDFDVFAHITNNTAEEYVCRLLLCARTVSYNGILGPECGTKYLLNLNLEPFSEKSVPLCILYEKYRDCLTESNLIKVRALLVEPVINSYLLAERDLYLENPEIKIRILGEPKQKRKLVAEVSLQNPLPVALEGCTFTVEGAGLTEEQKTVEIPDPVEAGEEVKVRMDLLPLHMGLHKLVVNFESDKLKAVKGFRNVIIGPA
Protocol: (§1) 50 μg lyophilized His-tagged recombinant human factor XIII A-subunit (His6-rhFXIII, Zedira product 1027) is reconstituted in H2O (volume depends on original volume before lyophilization) resulting in a buffer containing 20 mM Tris-HCl, 150 mM NaCl, 1 mM EDTA, 1 mM DTT, 189 mg/ml maltodextrin, pH=7.5. The rhFXIII stock solution is diluted in buffer (50 mM Tris-HCl, 7.5 mM CaCl2, 150 mM NaCl, pH=7.4) to give a working solution of 59 U/ml (based on the amine-incorporation activity measured using transglutaminase activity assay #1036 (Zedira GmbH), described below).
(§2) A 10 mM inhibitor stock solution is prepared in DMSO, and from this a serial 1:2-fold dilution series is prepared also in DMSO. Each of the initial dilutions is subsequently diluted 1:50-fold with buffer (50 mM Tris-HCl, 7.5 mM CaCl2, 150 mM NaCl, pH=7.4) to yield the final working dilutions containing 2% (v/v) DMSO.
(§3) 15 μl of inhibitor working dilution are added per well of a 96 well microtiter plate. As control, 15 μl of a 2% (v/v) DMSO solution prepared using the buffer mentioned above are added per well.
(§4) 480 μl of His6-rhFXIII working solution and 120 μl human alpha thrombin (0.5 NIH units/μl) are added to 10.8 ml assay buffer (50 mM Tris-HCl, 7.5 mM CaCl2, 150 mM NaCl, 5 mM DTT, 13.4 mM glycine methylester, 50 μM Abz-NE(CAD-DNP)EQVSPLILLK-OH, (Zedira product A101; patent No.: EP 1781807B1), pH=7.4). From this master-mix solution, 285 μl are added per well containing the inhibitor. Increase in fluorescence is measured using […] and λem=418 nm at 37° C. for 35 min. A slope of the increase in fluorescence between 20 and 30 min is calculated for determination of the IC50 value (inhibitor concentration at which 50% of the initial FXIII activity is blocked).
This assay was also used to determine selectivity of inhibitors preferentially blocking FXIIIa by using TG2 instead of FXIII.
(§5) Analysis of enzymatic activity is performed by calculation of the slope of an increase in fluorescence intensity. IC50 values are calculated by plotting the enzymatic activity (as percentage from control containing 2% DMSO instead of inhibitor) against the inhibitor concentration. IC50 is defined as the inhibitor concentration blocking 50%) of initial enzyme activity.

[2] = biological target: T2, recombinant human factor XIII A-subunit (rhFXIII-A, plasma transglutaminase) (Homo sapiens, UniProt P00488); assay: Inhibition of rec. human coagulation factor XIII (fluorescence, Abz-NE(CAD-DNP)EQVSPLILLK-OH)
T2 construct: His6; purchased Zedira 1027 (so in the source); T027)
T2 sequence (P00488 39-732 limits assumed): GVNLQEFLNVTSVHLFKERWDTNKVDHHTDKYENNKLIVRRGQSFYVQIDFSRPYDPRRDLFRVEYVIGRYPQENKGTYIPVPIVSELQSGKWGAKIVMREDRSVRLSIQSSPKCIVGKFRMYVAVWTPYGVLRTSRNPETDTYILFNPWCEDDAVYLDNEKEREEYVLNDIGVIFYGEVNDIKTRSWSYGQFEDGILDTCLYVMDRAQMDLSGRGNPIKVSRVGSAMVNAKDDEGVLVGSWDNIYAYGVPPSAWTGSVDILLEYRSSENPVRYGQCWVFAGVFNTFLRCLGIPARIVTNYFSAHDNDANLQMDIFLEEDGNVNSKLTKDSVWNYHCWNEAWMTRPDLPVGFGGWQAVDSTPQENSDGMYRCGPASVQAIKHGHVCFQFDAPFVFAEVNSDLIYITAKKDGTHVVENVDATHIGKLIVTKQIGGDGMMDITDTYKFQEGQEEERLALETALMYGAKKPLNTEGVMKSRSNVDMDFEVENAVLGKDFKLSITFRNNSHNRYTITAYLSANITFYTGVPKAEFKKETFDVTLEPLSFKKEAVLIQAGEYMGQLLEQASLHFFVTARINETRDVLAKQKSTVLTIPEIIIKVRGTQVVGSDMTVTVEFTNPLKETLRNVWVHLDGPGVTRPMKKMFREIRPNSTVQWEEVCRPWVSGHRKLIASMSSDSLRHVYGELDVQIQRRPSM
Protocol: Method for Inhibition Studies of Rec. Human Coagulation Factor XIII (Plasma Transglutaminase, rhFXIII-A)
as §1, §2, §3, §4, §5

[3] = biological target: T3, recombinant human tissue transglutaminase (rhTG2) (Homo sapiens, UniProt P21980); assay: Inhibition of rec. human tissue transglutaminase (fluorescence, Abz-APE(CAD-DNP)QEA-OH); conditions: Table 1, TG2 inhibitors
T3 construct: purchased Zedira 1022 (so in the source); T022)
T3 sequence (P21980 1-687): T1 sequence (P21980 1-687)
Outline: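 His6-rhTG2 in a master mix (50 mM Tris-HCl pH 7.4, 7.5 mM CaCl2, 150 mM NaCl, 5 mM DTT, 13.4 mM glycine methylester, 50 μM Abz-APE(CAD-DNP)QEA-OH) was added to serially diluted inhibitor. Fluorescence (ex 313/em 418 nm) was followed at 37 °C for 20 min. IC50 came from the 10–20 min slope relative to the 2% DMSO control.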

[4] = Table 1, selectivity with respect to FXIII, read-out: IC50 FXIII
[5] = Table 3, selectivity with respect to TG2, read-out: IC50 TG2
[6] = Table 3, FXIII inhibitors, read-out: IC50 FXIII

| Compound | IC50 [3] [nM] | IC50 [2, 4] [nM] | IC50 [2, 6] [nM] | other results |
| --- | --- | --- | --- | --- |
| CC(C)(C)[C@H](NC(=O)[C@H](CCC(=O)C(N)=O)NC(=O)c1cnc(O)c([N+](=O)[O-])c1)C(=O)N1CCCCC1C(=O)N[C@H](C(=O)N[C@H](C(N)=O)C1CCCCC1)C1CCCCC1 (stereo in doubt) [Compound E09, (S)—N1-((S)-1-((R)-2-((S)-2-((S)-2-amino-1-cyclohexyl-2-oxoethylamino)-1-cyclohexyl-2-oxoethylcarbamoyl)piperidin-1-yl)-3,3-dimethyl-1-oxobutan-2-yl)-2-(6-hydroxy-5-nitronicotinamido)-5-oxohexanediamide] | – | – | – | IC50 [1]: 100 nM; IC50 [2]: 150 nM |
| COC(=O)[C@H](CC(C)C)NC(=O)[C@@H]1CCCN1C(=O)[C@@H](NC(=O)[C@H](CCC(=O)C(N)=O)NC(C)=O)C(C)C [Compound E01, (S)-methyl 2-((S)-1-((S)-2-((S)-2-acetamido-6-amino-5,6-dioxohexanamido)-3-methylbutanoyl)pyrrolidine-2-carboxamido)-4-methylpentanoate] | 600 | > 100000 | – | – |
| CCCC[C@H](NC(=O)[C@H](CCC(=O)C(N)=O)NC(=O)[C@H](CC(=O)O)NC(C)=O)C(=O)N[C@@H](CCCC)C(=O)N[C@@H](CC(C)C)C(=O)N1CCC[C@H]1C(=O)N[C@@H](Cc1c[nH]c2ccccc12)C(=O)N1CCC[C@H]1C(=O)O [Compound E08, (S)-1-((S)-2-((S)-1-((4R,7S,10S,13S,16S)-7-(4-amino-3,4-dioxobutyl)-10, -dibutyl-4-(carboxymethyl)-18-methyl-2,5,8,11,14-pentaoxo-3,6,9,12,15-pentaazanonadecanecarbonyl)pyrrolidine-2-carboxamido)-3-(1H-indol-3-yl)propanoyl)pyrrolidine-2-carboxylic acid] (Ac-D[X5][Nle][Nle]LPWP-OH) | – | – | 150 | IC50 [1, 5]: 100 nM |
| CCCC(NC(=O)C1C2C(CN1C(=O)C(CC1CC1)NC(=O)C(CCC(=O)C(N)=O)NC(=O)c1cc(C(=O)O)cc([N+](=O)[O-])c1)C2(C)C)C(=O)N1CCCC1(C)C(=O)NC(C)COc1c(C)cccc1C [Compound E10, 3-((2S)-6-amino-1-((2S)-3-cyclopropyl-1-((1R,2S)-2-((2S)-1-((2S)-2-(1-(2,6-dimethylphenoxy)propan-2-ylcarbamoyl)-2-methylpyrrolidin-1-yl)-1-oxopentan-2-ylcarbamoyl)-6,6-dimethyl-3-azabicyclo[3.1.0]hexan-3-yl)-1-oxopropan-2-ylamino)-1,5,6-trioxonexan-2-ylcarbamoyl)-5-nitrobenzoic acid] | – | – | – | IC50 [1]: 100 nM; IC50 [2]: 150 nM |
| CCNC(=O)C(=O)CC[C@H](NC(=O)c1ccncc1C(=O)O)C(=O)N[C@H](C(=O)N1CC(=O)C[C@H]1C(=O)N[C@H](C(=O)N[C@H](C(N)=O)C1CCCCC1)C1CCCCC1)C(C)(C)C [Compound E26, 4-((S)-1-((S)-1-((S)-2-((S)-2-((S)-2-amino-1-cyclohexyl-2-oxoethylamino)-1-cyclohexyl-2-oxoethylcarbamoyl)-4-oxopyrrolidin-1-yl)-3,3-dimethyl-1-oxobutan-2-ylamino)-6-(ethylamino)-1,5,6-trioxohexan-2-ylcarbamoyl)nicotinic acid] ({Isonicotinoyl(3-COOH)}-[X6][Tle][Pro(4-oxo)][Chg][Chg]-NH2) | – | – | 320 | IC50 [1, 5]: 10800 nM |
| CC(C)(C)[C@H](NC(=O)[C@H](CCC(=O)C(=O)NC1CC1)NC(=O)c1ccncc1C(=O)O)C(=O)N1CC(=O)C[C@H]1C(=O)N[C@H](C(=O)N[C@H](C(N)=O)C1CCCCC1)C1CCCCC1 [Compound E28, 4-((S)-1-((S)-1-((S)-2-((S)-2-((S)-2-amino-1-cyclohexyl-2-oxoethylamino)-1-cyclo-hexyl-2-oxoethylcarbamoyl)-4-oxopyrrolidin-1-yl)-3,3-dimethyl-1-oxobutan-2-yl-amino)-6-(cyclopropylamino)-1,5,6-trioxohexan-2-ylcarbamoyl)nicotinic acid] ({Isonicotinoyl(3-COOH)}-[X4][Tle][Pro(4-oxo)][Chg][Chg]-NH2) | – | – | 275 | – |

Continued, in another order:

| IC50 [3] [nM] | IC50 [2, 4] [nM] | IC50 [2, 6] [nM] | Compound | other results |
| --- | --- | --- | --- | --- |
| 750 | > 100000 | – | CC[C@@H](C)[C@H](NC(=O)[C@H](CCC(N)=O)NC(=O)[C@H](CCC(=O)C(N)=O)NC(C)=O)C(=O)N[C@H](C(N)=O)C(C)C [Compound E03, (S)-2-acetamido-N1-((S)-5-amino-1-((2S,3R)-1-((S)-1-amino-3-methyl-1-oxobutan-2-ylamino)-3-methyl-1-oxopentan-2-ylamino)-1,5-dioxopentan-2-yl)-5-oxohexanediamide] | – |
| 100 | > 100000 | – | CCC(CC)CNC(=O)Cn1cccc(NC(=O)[C@H](CCC(=O)C(N)=O)NC(=O)c2cncn2C)c1=O [Compound E04, (S)—N1-(1-(2-(2-ethylbutylamino)-2-oxoethyl)-2-oxo-1,2-dihydropyridin-3-yl)-2-(1-methyl-1H-imidazole-5-carboxamido)-5-oxohexanediamide] | – |
| 150 | > 100000 | – | Cc1nc(Br)sc1C(=O)N[C@@H](CCC(=O)C(N)=O)C(=O)Nc1cccn(CC(=O)NCCC(C)C)c1=O [Compound E05, (S)-2-(2-bromo-4-methylthiazole-5-carboxamido)-N1-(1-(2-(isopentylamino)-2-oxoethyl)-2-oxo-1,2-dihydropyridin-3-yl)-5-oxohexanediamide] | – |
| 50 | > 100000 | – | CCC(CC)CNC(=O)Cn1cccc(NC(=O)[C@H](CCC(=O)C(=O)NC)NC(=O)c2cncn2C)c1=O [Compound E16, (S)—N1-(1-(2-(2-ethylbutylamino)-2-oxoethyl)-2-oxo-1,2-dihydropyridin-3-yl)-N6-methyl-2-(1-methyl-1H-imidazole-5-carboxamido)-5-oxonexanediamide] | – |
